Source: patent US5635486A, “Ophthalmic composition comprising a sleep adjusting substance” (priority 1990, dated 1997)
Like-named read-outs stand apart in the source and are kept apart here.

Legend:
[1] = into a lateral ventricle, rat; cited from earlier work
[2] = cited from earlier work
mice = test: Locomotor activity of mice after instillation of ophthalmic medicament to the eye (Automex, total activity ratio per hour vs saline); assay type: in vivo, mouse (ICR male); settings: for sleep inducing or inhibiting activity (in words): by instillation to mouse eye; for locomotor activity (in words) / pain or itch in the eyes as cause of the sleep inhibition / time when the mice started to move / total activity ratio / Total Activity ratio per hour: instilled to mouse eye; for Total Activity ratio per hour: 19:30-20:30
Description: Three ICR male mice were put in a cage and bred under the condition of a day-and-night cycle of every 12 hours (the daytime: from 7:35 to 19:35; the nighttime: from 19:35 to 7:35) for an experiment.
In this manner, the mice were habituated to the instillation by administering the saline every day. After the same activity pattern appeared for two days continuously, an ophthalmic medicament containing a desired sleep adjusting substance was instilled for consecutive two days. The ophthalmic medicament was prepared by dissolving the sleep adjusting substance in saline. […] The locomotor activity (unit: count) of mice was measured every 10 minutes by using a measuring device for the locomotor activity of an experimental animal "Automex" (produced by Tokai Irika). The locomotor activity was measured by putting a mouse on the measuring device. Every time any of the mice moved, a counter of the device cumulated the number of the movements. Thus, the larger cumulated number reflected more energetic activity. Such a measurement was conducted twice (for two days). An average value of the locomotor activity at each time was calculated and the results were plotted to obtain a graph, with time as the abscissas and the average locomotor activity as the ordinates. This graph depicts an activity pattern of the mice as a function of an administration of the ophthalmic medicament. A total of the locomotor activity (i.e., an area below the curve in the graph) per one hour between 19: 30 which is 30 minutes after the administration and 20:30 was calculated. In the same manner, as for the mice with the administration of saline alone, a total locomotor activity per the same one hour period as above was calculated. The ratio (%) of the calculated total locomotor activity per one hour of the mice with saline alone to that of the mice with the administration of the ophthalmic medicament (hereinafter called the "total activity ratio") was obtained. The mice whose activity patterns were not stable during the habituation to the administration of saline were not used in the following examples.

[3] = cited from earlier work; for sleep effect: species and route not stated
[4] = injected into an eyeball; axonal flow; cited from earlier work
human = settings: cited from earlier work
animal = settings: in an animal; cited from earlier work
neurons = settings: cited from earlier work
[5] = cited from earlier work; remark: listed apart in the source
[6] = into a cerebral ventricle, rabbit; cited from earlier work
[7] = administered into a cerebral ventricle

Compound: Nc1ncnc2c1ncn2[C@@H]1O[C@H](CO)[C@@H](O)[C@H]1O [Adenosine, adenosine]
- sleep effect [1]: induce non-REM sleep

Compound: Nc1ccn([C@@H]2O[C@H](CO)[C@@H](O)[C@H]2O)c(=O)n1 [cytidine]
- arousal hours [2, 7]: increase arousal hours
- total sleep hours [2, 7]: decrease total sleep hours
- sleep inducing or inhibiting activity (in words) (mice; 100 μM): can inhibit sleep
- locomotor activity (in words) (mice; 100 μM): completely disappeared temporarily after the instillation
- pain or itch in the eyes as cause of the sleep inhibition (mice; 100 μM): not caused by a pain or an itch in the eyes
- time when the mice started to move (mice; 100 μM): advanced
- total activity ratio (mice; 100 μM, vs saline control): 127%

Compound: CCCCC[C@H](O)/C=C/[C@H]1[C@H](O)CC(=O)[C@@H]1C/C=C\CCCC(=O)O [PGE2, prostaglandin E2]
- sleep effect [3]: inhibits sleep
- sleep effect ([3]; listed as prostaglandin E2): sleep inhibiting activity

Compound: O=c1cc[nH]c(=O)[nH]1 [Uracil, uracil, reference compound]
- locomotor activity (in words) (mice; 100 μM): did not decrease

Compound: horseradish peroxidase: an enzyme with a molecular weight of about 40,000, frequently used as a tracer
- uptake by ganglion cells and transport to the suprachiasmatic nucleus [4]: uptaken by the ganglion cells, and then transported to the suprachiasmatic nucleus through the axonal flow

Compound: arginine vasotocin [AVT]
- sleep effect (human; in a human): REM sleep
- amount of serotonin in the brain ([3]; mechanism of sleep induction): increasing the amount of serotonin in the brain
- sleep effect (animal): induces non-REM sleep

Compound: O=c1ccn([C@@H]2O[C@H](CO)[C@@H](O)[C@H]2O)c(=O)[nH]1 [Uridine, uridine]
- sleep effect ([2]; injection of only 10 pmole into a cerebral ventricle): induces non-REM sleep
- excitation of the neurons (neurons): induces or inhibits excitation of the neurons
- sleep inducing or inhibiting activity (in words) (mice; 100 μM): showed a sleep inducing activity
- Total Activity ratio per hour (mice; 10 μM): 63 % of control
- Total Activity ratio per hour (mice; 30 μM): 57 % of control
- locomotor activity (in words) (mice; 100 μM): remarkably decreased
- time when the mice started to move (mice; 100 μM): shifted backward
- Total Activity ratio per hour (mice; 100 μM): 53 % of control

Compound: CCCCC[C@H](O)/C=C/[C@H]1C(=O)C[C@H](O)[C@@H]1C/C=C\CCCC(=O)O [PGD2, prostaglandin D2]
- sleep effect [3]: strong sleep inducing substance
- time when the mice started to move (mice; 100 μM): shifted backward
- total activity ratio (mice; 100 μM, vs saline control): 78%

Compound: N[C@@H](Cc1c[nH]c2ccccc12)C(=O)O [tryptophan]
- effectiveness of oral administration [5]: somewhat effective

Compound: delta-sleep-inducing peptide [DSIP]
- sleep effect [6]: induce sleep
- anti-stress activity (human; administered to a human): anti-stress activity such as causing sleep inhibition
- sleep inducing or inhibiting activity (in words) (mice; 100 μM): exerted a sleep inhibiting activity
- pain or itch in the eyes as cause of the sleep inhibition (mice; 100 μM): certainly not due to any pain or itch in the eyes
- total activity ratio (mice; 100 μM in saline containing 0.1% bovine serum albumin): 130%

Compound: C1CCNCC1 [Piperidine, piperidine]
- sleep effect [3]: sleep inducing activity
- total activity ratio (mice; 100 μM, vs saline control): 72%
